In patent publication US20240150300A1, “S-CONFIGURATION-CONTAINING AMINO BENZAMIDE PYRIDAZINONE COMPOUND, PREPARATION METHOD THEREFOR, AND PHARMACEUTICAL COMPOSITION AND APPLICATION THEREOF” (SHANGHAI INSTITUTE OF MATERIA MEDICA, CHINESE ACADEMY OF …, priority 2021, published 2024):

Assays:
SKM-1 cells = assay: Antiproliferative activity, CCK-8, SKM-1; assay type: cell-based, human
Experimental: (§1) The tumor cells used were purchased from commercial cell banks (HCT116 purchased from ATCC, SKM 1 purchased from JCRB). The growth inhibition of cells was detected using the CCK-8 method. The specific steps were as follows. Cells in the logarithmic growth phase were seeded into a 96 well culture plate at an appropriate density, with 90 μL/well. After overnight cultivation, different concentrations of drugs were added for treatment for 72 h, with each concentration in triplicate, and corresponding concentration of vehicle control and cell-free blank wells were also set. After the treatment, 10 μL of CCK-8 was added to each well and the plate was incubated in an incubator for 2-4 hours, and the optical density (OD value) at a wavelength of 450 nm was measured using a SpectraMax 190 microplate reader. […] The experiment was repeated twice, and the mean value and SD were calculated.
With reference to HCT-116 cell proliferation inhibition test method, the inhibitory activity of the compounds on the proliferation of human myelodysplastic syndrome cell SKM-1 was tested.

HCT-116 cells = assay: Antiproliferative activity, CCK-8, HCT-116; assay type: cell-based, human
Experimental: as §1

HDAC8 = HDAC8 (Homo sapiens (Human), UniProt Q9BY41); assay: HDAC subtype inhibitory activity (HTRF), HDAC8; assay type: biochemical
Experimental: (§2) Human recombinant HDAC family proteins with His and GST tags were expressed using insect baculovirus expression system, and a biologically active HDAC family recombinant protein was obtained through Ni affinity column protein purification. HTRF detection method was used with H3(1-21) K9Ac biotin as the substrate. […] Briefly, 20 μl of the activity testing system included the HDAC substrate (0.2 μM. 4 μl), the Human Recombinant Protein HDAC (2-5 ng)/μl.

HDAC10 = HDAC10 (Homo sapiens (Human), UniProt Q969S8); assay: HDAC subtype inhibitory activity (HTRF), HDAC10; assay type: biochemical
Experimental: as §2

HDAC2 = HDAC2 (Homo sapiens (Human), UniProt Q92769); assay: HDAC subtype inhibitory activity (HTRF), HDAC2; assay type: biochemical
Experimental: as §2

HDAC3 = HDAC3 (Homo sapiens (Human), UniProt O15379); assay: HDAC subtype inhibitory activity (HTRF), HDAC3; assay type: biochemical
Experimental: as §2

HDAC6 = HDAC6 (Homo sapiens (Human), UniProt Q9UBN7); assay: In vitro histone deacetylase activity assay (HTRF), HDAC6; assay type: biochemical; conditions: H3(1-21) K9Ac biotin substrate
Experimental: as §2

HDAC1 = HDAC1 (Homo sapiens (Human), UniProt Q13547); assay: In vitro histone deacetylase activity assay (HTRF), HDAC1; assay type: biochemical; conditions: H3(1-21) K9Ac biotin substrate
Experimental: as §2

Sequence of HDAC6 (Q9UBN7 whole entry): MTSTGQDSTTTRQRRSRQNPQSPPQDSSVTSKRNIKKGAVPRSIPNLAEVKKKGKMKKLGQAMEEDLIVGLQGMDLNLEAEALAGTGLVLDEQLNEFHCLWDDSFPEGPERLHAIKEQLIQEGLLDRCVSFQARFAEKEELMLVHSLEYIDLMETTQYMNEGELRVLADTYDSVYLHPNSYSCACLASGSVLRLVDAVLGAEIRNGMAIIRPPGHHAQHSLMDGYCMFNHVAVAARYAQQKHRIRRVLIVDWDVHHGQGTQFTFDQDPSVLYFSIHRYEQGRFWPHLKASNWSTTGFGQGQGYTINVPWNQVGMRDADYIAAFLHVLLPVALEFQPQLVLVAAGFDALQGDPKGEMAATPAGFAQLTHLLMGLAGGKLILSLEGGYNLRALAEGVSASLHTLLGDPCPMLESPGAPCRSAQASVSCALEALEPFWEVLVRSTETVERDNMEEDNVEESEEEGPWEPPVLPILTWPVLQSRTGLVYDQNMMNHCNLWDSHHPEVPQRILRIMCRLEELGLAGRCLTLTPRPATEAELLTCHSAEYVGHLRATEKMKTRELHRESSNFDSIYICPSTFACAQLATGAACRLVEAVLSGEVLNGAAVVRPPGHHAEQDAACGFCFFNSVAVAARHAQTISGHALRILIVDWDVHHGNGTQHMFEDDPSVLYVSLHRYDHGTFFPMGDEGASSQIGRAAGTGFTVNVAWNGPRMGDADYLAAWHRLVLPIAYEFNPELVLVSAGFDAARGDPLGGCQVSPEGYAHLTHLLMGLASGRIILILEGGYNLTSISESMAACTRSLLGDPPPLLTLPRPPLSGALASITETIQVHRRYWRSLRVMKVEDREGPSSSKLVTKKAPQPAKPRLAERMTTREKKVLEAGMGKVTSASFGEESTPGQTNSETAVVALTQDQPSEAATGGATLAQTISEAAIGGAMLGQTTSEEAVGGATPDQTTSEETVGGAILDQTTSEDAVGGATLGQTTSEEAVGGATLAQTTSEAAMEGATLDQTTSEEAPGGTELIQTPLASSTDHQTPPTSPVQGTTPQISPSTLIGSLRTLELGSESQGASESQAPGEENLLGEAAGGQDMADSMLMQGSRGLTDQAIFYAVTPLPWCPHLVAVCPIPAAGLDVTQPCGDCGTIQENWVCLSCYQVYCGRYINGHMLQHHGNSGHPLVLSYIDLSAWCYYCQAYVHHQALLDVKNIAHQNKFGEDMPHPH
Sequence of HDAC1 (Q13547 whole entry): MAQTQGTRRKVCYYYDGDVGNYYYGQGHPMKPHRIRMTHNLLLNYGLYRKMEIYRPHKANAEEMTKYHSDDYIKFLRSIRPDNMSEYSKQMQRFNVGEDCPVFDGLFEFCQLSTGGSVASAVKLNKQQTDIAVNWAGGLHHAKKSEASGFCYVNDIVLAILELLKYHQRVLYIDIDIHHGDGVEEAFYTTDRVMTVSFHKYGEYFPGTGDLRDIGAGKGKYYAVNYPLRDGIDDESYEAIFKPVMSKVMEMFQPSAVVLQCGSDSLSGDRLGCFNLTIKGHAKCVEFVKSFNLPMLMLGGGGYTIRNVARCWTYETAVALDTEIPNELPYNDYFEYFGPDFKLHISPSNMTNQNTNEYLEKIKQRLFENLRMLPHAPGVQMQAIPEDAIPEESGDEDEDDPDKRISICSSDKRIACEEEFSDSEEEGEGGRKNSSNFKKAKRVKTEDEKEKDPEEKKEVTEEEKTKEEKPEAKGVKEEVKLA
Sequence of HDAC2 (Q92769 whole entry): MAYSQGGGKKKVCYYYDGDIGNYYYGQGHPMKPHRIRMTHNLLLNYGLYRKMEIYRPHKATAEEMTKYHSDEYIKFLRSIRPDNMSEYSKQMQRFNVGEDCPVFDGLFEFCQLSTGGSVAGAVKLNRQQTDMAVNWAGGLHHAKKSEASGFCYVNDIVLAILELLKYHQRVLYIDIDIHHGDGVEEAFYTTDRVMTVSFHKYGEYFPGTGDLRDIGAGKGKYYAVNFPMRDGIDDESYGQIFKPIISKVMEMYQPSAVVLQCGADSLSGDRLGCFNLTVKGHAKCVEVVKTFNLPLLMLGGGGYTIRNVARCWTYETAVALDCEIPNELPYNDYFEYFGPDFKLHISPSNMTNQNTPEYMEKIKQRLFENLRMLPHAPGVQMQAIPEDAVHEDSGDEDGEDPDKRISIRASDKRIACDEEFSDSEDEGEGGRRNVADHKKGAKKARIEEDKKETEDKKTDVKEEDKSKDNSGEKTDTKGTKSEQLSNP
Sequence of HDAC3 (O15379 whole entry): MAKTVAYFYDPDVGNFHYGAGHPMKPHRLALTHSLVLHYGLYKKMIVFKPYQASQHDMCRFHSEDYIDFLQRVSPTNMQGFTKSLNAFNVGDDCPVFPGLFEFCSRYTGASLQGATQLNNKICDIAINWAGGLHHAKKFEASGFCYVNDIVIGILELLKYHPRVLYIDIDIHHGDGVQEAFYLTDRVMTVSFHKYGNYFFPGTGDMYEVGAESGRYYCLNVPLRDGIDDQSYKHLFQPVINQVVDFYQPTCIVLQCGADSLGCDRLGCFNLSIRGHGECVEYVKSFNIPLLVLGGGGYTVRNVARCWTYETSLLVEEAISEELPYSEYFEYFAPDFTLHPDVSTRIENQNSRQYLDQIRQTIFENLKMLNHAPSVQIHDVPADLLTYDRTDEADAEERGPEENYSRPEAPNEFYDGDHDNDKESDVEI
Sequence of HDAC3 (Q9Y618 395-489 partner): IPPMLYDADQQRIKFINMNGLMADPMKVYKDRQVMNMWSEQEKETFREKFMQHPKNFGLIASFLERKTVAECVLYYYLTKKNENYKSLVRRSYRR
Sequence of HDAC10 (Q969S8 whole entry): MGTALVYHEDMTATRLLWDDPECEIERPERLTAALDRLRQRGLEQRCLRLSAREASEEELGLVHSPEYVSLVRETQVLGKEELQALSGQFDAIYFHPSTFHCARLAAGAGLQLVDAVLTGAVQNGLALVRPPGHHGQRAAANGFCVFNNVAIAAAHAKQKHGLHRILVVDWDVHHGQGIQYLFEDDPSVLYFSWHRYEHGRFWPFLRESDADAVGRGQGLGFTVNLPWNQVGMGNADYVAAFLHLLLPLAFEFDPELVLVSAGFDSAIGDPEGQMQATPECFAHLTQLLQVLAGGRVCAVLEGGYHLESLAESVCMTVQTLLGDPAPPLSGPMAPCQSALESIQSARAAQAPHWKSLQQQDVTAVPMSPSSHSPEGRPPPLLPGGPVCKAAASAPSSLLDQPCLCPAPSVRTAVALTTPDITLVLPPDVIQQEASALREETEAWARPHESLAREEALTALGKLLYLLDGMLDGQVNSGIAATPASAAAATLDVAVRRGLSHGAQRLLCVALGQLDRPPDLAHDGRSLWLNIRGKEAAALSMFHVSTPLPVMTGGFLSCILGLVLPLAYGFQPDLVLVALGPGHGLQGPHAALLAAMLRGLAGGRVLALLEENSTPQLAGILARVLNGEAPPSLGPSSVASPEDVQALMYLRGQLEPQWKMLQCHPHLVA
Sequence of HDAC8 (Q9BY41 whole entry): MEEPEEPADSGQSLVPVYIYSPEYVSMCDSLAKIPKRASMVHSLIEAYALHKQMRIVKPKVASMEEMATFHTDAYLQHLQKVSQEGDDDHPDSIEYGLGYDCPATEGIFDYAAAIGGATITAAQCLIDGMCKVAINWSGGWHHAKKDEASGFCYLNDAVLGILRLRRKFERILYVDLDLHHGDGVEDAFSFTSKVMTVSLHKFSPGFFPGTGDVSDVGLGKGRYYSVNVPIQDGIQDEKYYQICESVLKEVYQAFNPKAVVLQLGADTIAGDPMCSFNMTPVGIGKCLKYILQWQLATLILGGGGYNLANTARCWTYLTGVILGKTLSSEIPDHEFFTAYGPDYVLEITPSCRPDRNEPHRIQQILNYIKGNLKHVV

IC50 (SKM-1 cells; Homo sapiens, SKM-1, 72 h) [nM] | IC50 (HCT-116 cells; Homo sapiens, HCT-116, 72 h) [nM] | IC50 (HDAC8) [nM] | IC50 (HDAC10) [nM] | IC50 (HDAC2) [nM] | IC50 (HDAC3) [nM] | IC50 (HDAC6) [nM] | IC50 (HDAC1) [nM] | IC50 (SKM-1 cells; 72 h) [nM] | IC50 (HCT-116 cells; 72 h) [nM] | SMILES
90 ± 4 | 110 ± 7 | – | – | – | – | – | – | – | – | CC(c1ccc(C(=O)Nc2ccccc2N)cc1)n1nc(-c2ccc(CN(C)C)cc2)ccc1=O (racemic) [HYH-072 (racemate of I-2), reference compound]
230 ± 10 | 380 ± 1 | – | – | – | – | – | – | – | – | CC(c1ccc(C(=O)Nc2ccc(F)cc2N)cc1)n1nc(-c2ccc(CN(C)C)cc2)ccc1=O (racemic) [HYH-073 (racemate of I-1), reference compound]
550 ± 4 | 1700 ± 105 | – | – | – | – | – | – | – | – | Nc1cc(F)ccc1NC(=O)c1ccc(CNC(=O)/C=C/c2cccnc2)cc1 [Chidamide, reference compound]
60 ± 1 | 80 ± 2 | > 100000 | > 100000 | 90 ± 2 | 390 ± 28 | > 10000 | 23.3 ± 1.1 | – | – | C[C@@H](c1ccc(C(=O)Nc2ccccc2N)cc1)n1nc(-c2ccc(CN(C)C)cc2)ccc1=O [Compound I-2]
270 ± 13 | 390 ± 6 | – | – | – | – | > 10000 | 52.4 ± 10.2 | – | – | C[C@@H](c1ccc(C(=O)Nc2ccccc2N)cc1)n1nc(-c2cccc(Cl)c2)ccc1=O [Compound I-3]
160 ± 1 | 230 ± 4 | – | – | – | – | > 10000 | 35.2 ± 4.47 | – | – | COc1cccc(-c2ccc(=O)n([C@@H](C)c3ccc(C(=O)Nc4ccccc4N)cc3)n2)c1 [Compound I-4]
200 ± 1 | 280 ± 8 | – | – | – | – | > 10000 | 124 ± 24.4 | – | – | C[C@@H](c1ccc(C(=O)Nc2ccccc2N)cc1)n1nc(-c2cnn(C)c2)ccc1=O [Compound I-5]
240 ± 11 | 330 ± 4 | – | – | – | – | > 10000 | 60.5 ± 5.73 | – | – | C[C@@H](c1ccc(C(=O)Nc2ccccc2N)cc1)n1nc(-c2ccncc2)ccc1=O [Compound I-6]
210 ± 5 | 310 ± 18 | – | – | – | – | > 10000 | 99.5 ± 11.1 | – | – | C[C@@H](c1ccc(C(=O)Nc2cc(F)c(F)cc2N)cc1)n1nc(-c2ccc(CN(C)C)cc2)ccc1=O [Compound I-7]
490 ± 16 | 870 ± 37 | – | – | – | – | > 10000 | 126 ± 18.3 | – | – | COc1ccc(NC(=O)c2ccc([C@H](C)n3nc(-c4ccc(CN(C)C)cc4)ccc3=O)cc2)c(N)c1 [Compound I-8]
– | 400 ± 72 | – | – | – | – | > 10000 | 50.5 ± 13.7 | – | – | C[C@@H](c1ccc(C(=O)Nc2ccccc2N)cc1)n1nc(-c2ccccc2)ccc1=O [Compound I-10]
– | – | – | – | – | – | > 10000 | 42.4 ± 0.8 | 270 ± 19 | 310 ± 37 | COc1ccc(N)c(NC(=O)c2ccc([C@H](C)n3nc(-c4ccc(CN(C)C)cc4)ccc3=O)cc2)c1 [Compound I-11]
100 | 140 ± 4 | – | – | – | – | > 10000 | 31.3 ± 3.27 | – | – | C[C@@H](c1ccc(C(=O)Nc2cc(F)ccc2N)cc1)n1nc(-c2ccc(CN(C)C)cc2)ccc1=O [Compound I-12]
– | – | – | – | – | – | > 10000 | 44.8 ± 1.53 | 170 ± 2 | 220 ± 24 | Cc1ccc(N)c(NC(=O)c2ccc([C@H](C)n3nc(-c4ccc(CN(C)C)cc4)ccc3=O)cc2)c1 [Compound I-13]
– | – | > 100000 | > 100000 | 320 ± 48 | 720 ± 196 | > 10000 | 375 ± 42.1 | 1060 ± 79 | 1550 ± 94 | C[C@H](c1ccc(C(=O)Nc2ccc(F)cc2N)cc1)n1nc(-c2ccc(CN(C)C)cc2)ccc1=O [I-1 (R configuration), reference compound]

SMILES | IC50 (SKM-1 cells; Homo sapiens, SKM-1, 72 h) [nM] | IC50 (HCT-116 cells; Homo sapiens, HCT-116, 72 h) [nM] | IC50 (HDAC8) [nM] | IC50 (HDAC10) [nM] | IC50 (HDAC2) [nM] | IC50 (HDAC3) [nM] | IC50 (HDAC6) [nM] | IC50 (HDAC1) [nM] | IC50 (SKM-1 cells; 72 h) [nM] | IC50 (HCT-116 cells; 72 h) [nM]
C[C@@H](c1ccc(C(=O)Nc2cccc(F)c2N)cc1)n1nc(-c2ccc(CN(C)C)cc2)ccc1=O [Compound I-9] | 340 ± 13 | 500 ± 65 | – | – | – | – | > 10000 | 122 ± 11.1 | – | –
Nc1ccccc1NC(=O)c1ccc(CNC(=O)OCc2cccnc2)cc1 [MS-275, Entinostat, reference compound] | 390 | 1480 ± 8 | – | – | – | – | – | – | – | –
